16 molecules from ChEMBL document CHEMBL3822451, “Structure-based design and synthesis of small molecular inhibitors disturbing the interaction of MLL1-WDR5” (Eur J Med Chem, 2016) can be followed below.

The target of one experiment is T1, WD repeat-containing protein 5 (Homo sapiens, UniProt P61964). The experiment is described as follows: Binding affinity to His-tagged human WDR5 expressed in Escherichia coli by isothermal titration calorimetry.
`Cc1c(F)ccc(C(=O)Nc2cc(-c3ccncc3)ccc2N2CCN(C)CC2)c1Cl` returned a Kd of 0.133 µM.

A further experiment addresses T1, WD repeat-containing protein 5. The experiment is described as follows: Inhibition of 10mer-Thr-FAM probe binding to His-tagged human WDR5 expressed in Escherichia coli incubated for 2 hrs by fluorescence polarization assay.
`COc1cccc(NC(=O)c2cc([N+](=O)[O-])ccc2N2CCN(C)CC2)c1` yielded an IC50 of more than 20 µM.

Consider `COc1ccc(S(=O)(=O)Nc2cc([N+](=O)[O-])ccc2N2CCN(C)CC2)cc1OC`, for which the IC50 is more than 20 µM.

Take `Cc1c(F)ccc(C(=O)Nc2cc(-c3ccc(N)cc3)ccc2N2CCN(C)CC2)c1Cl`: the IC50 came out at 0.206 µM.

`Cc1c(F)ccc(C(=O)Nc2cc(N)ccc2N2CCN(C)CC2)c1Cl` registered an IC50 of more than 20 µM.

`Cc1c(F)ccc(C(=O)Nc2ccc(-c3ccc(C(=O)O)cc3)cc2N2CCN(C)CC2)c1Cl` showed an IC50 of more than 20 µM.

`CN1CCN(c2ccc([N+](=O)[O-])cc2NS(=O)(=O)c2ccc(F)cc2)CC1`: the IC50 was more than 20 µM.

`Cc1c(F)ccc(C(=O)Nc2ccc(-c3ccncc3)cc2N2CCN(C)CC2)c1Cl` came in with an IC50 of more than 20 µM.

On to `CN1CCN(c2ccc([N+](=O)[O-])cc2C(=O)Nc2ccccc2Cl)CC1`, for which the IC50 was more than 20 µM.

The molecule `Cc1c(F)ccc(C(=O)Nc2ccc(-c3ccc([N+](=O)[O-])cc3)cc2N2CCN(C)CC2)c1Cl` had an IC50 of more than 20 µM.

`Cc1c(F)ccc(C(=O)Nc2cc(-c3ccncc3)ccc2N2CCN(C)CC2)c1Cl`: the IC50 came to 0.104 µM.

`Cc1c(F)c([N+](=O)[O-])cc(C(=O)Nc2cc(-c3ccccc3)ccc2N2CCN(C)CC2)c1Cl` gave an IC50 of 0.207 µM.

For `Cc1c(F)ccc(C(=O)Nc2ccc(-c3ccc(N)cc3)cc2N2CCN(C)CC2)c1Cl`, the IC50 was more than 20 µM.

Regarding `Cc1c(F)ccc(C(=O)Nc2cc(-c3ccccc3)ccc2N2CCN(C)CC2)c1Cl`, the IC50 was 0.466 µM. This counts as sub-micromolar.

Regarding `Cc1cc(C)c(S(=O)(=O)Nc2cc([N+](=O)[O-])ccc2N2CCN(C)CC2)c(C)c1`, the IC50 is more than 20 µM.

On to `COc1ccc(S(=O)(=O)Nc2cc([N+](=O)[O-])ccc2N2CCN(C)CC2)cc1`, for which the IC50 was more than 20 µM.

Regarding `CN1CCN(c2ccc([N+](=O)[O-])cc2C(=O)Nc2ccc(F)cc2F)CC1`, the IC50 was more than 20 µM.
